Experimental data taken from patent EP1056700B1, “MEDICINAL USES OF PHENYLALKANOLS AND DERIVATES” (ZingoTX Pty Ltd, priority 1997, dated 1999).
Several values for one entry are separate records, joined by “and”; a condition that tells them apart may be missing. Identical values can stand only once. Entries after “also recorded” stand apart in the source; their conditions may differ.

Assays:
Platelet rich plasma = assay: Platelet aggregation: [^3H]-serotonin release from platelet rich plasma, arachidonic acid initiated; format: cell-based; conditions: Homo sapiens, activation by EC50 concentration of arachidonic acid
Description: Blood was collected from healthy volunteers who had taken no medication in the previous two weeks. The anticoagulant used was 3.8 % trisodium citrate. Platelet rich plasma was prepared and incubated with [^3H]-serotonin. This was followed by addition of gingerol analogues. Platelet activation was initiated using the EC50 concentration for arachidonic acid. The percentage of [^3H]-serotonin release was measured using a liquid scintillation counter. Then, dose-response curves were established and IC50 values were obtained.

DRG neuronal cells = assay: Peak [Ca^2+]i transients in cultured dorsal root ganglion neurons (Fura-2); format: cell-based, rat; conditions: for Number of capsaicin-sensitive cells responding / Peak [Ca^2+]i (Average ±SD): 2 mM Ca^2+
Description: DRG from neonatal (3-5 days old) rat or adult Sprague-Dawley rats were incubated in Hanks CMF saline with 0.05% collagenase and 0.25% trypsin for 25 min at 37° C. Individual cells were obtained by trituration with fire polished Pasteur pipettes of diminishing diameters. Neurones were isolated from the cell suspension in 30% Percoll and then plated on collagen coated coverslips or in 24-well plates, then cultured in neurobasal medium with B27 supplement, 50 ng/ml 2.5 S nerve growth factor, 2 mM 1-glutamine and 100 U/ml penicillin/streptomycin. Cultures were maintained at 37° C with 5% CO2. 30% Percoll increases the percentage of capsaicin-sensitive DRG neurones up to 70%. For peak [Ca^2+]i transients measurements, cells on coverslips were incubated with 5 µM Fura-2 AM for 30 min at 37° C. The coverslips were then mounted on a chamber attached to a fast sample application perfusion system which allows changing solutions in the second range. Recordings were made on the stage of a Nikon Diaphot inverted microscope fitted with a Nikon 40 x Fluo (NA 0.85) DL Ph3 or 40 x Fluo (NA 1.3) oil objective. [Ca^2+]i was calculated from dual excitation wavelength (340/380 nm) fluorescence measurements following an intracellular calibration procedure by the Grynkiewicz equation, using MCID M2/M4 v.3.0 (Imaging Res. Inc.) software. Cells were continuously perfused with a solution consisting of 140 mM NaCl, 2 mM CaCl2, 5 mM KCl, 20 mM HEPES, 10 mM glucose, pH 7.4. To study KCl evoked depolarisation, 50 mM NaCl was replaced by equimolar KCl. Cytoplasmic localisation of Fura-2 was tested with the Mn^2+ quenching technique (Dedov and Roufogalis, 1998). All experiments were performed at room temperature (20-23°C).
Typical changes in [Ca^2+]i upon depolarisation were evoked by 50 mM KCl and by application of 1 µM capsaicin; both were applied for 30 sec. Capsaicin-evoked peak [Ca^2+]i transients are characterised by a fast rise and long-steady state [Ca^2+]i clearance from the cytoplasm. In capsaicin-sensitive cells the half-time of cytoplasmic Ca^2+ clearance was proportional to the amplitudes of peak [Ca^2+]i transients.
To examine the effect of gingerol derivatives, one or several compounds in succession at a concentration of 10 µM were applied for 1 min to the DRG neuronal cells followed by washing out for 4 min with physiological solution. To the capsaicin-sensitive cells, 10 µM capsaicin and 50 mM KCl were applied, respectively, to confirm the viability of the cells. In addition, morphological appearances of the cells were also examined at the end of experiment. […]

[1] = Brine shrimp toxicity bioassay; format: in vivo; conditions: Artemia salina (brine shrimp), in vivo; 24 hours, 2% DMSO
From the text: The brine shrimp assay procedure determines LC50 values of active compounds. Activities of a broad range of known active compounds are manifested as toxicity to brine shrimp (Artemia salina Leach). There are many applications of the assay including analysis of toxic substances, anaesthetics, morphine-like substances and cocarcinogenicity of phorbol esters.
The method for testing solvent toxicity used was basically that reported by J L McLaughlin in Methods of Plant Biochemistry (1991), vol. 6 (K Hostettman, ed.), Academic Press, London, 1-32. DMSO solutions of the substances to be tested were added directly to the vials containing the brine shrimp. As the concentration of DMSO that we wished to use was higher than the recommended 1% v/v testing of the toxicity of the DMSO was therefore necessary. The concentrations of DMSO tested on the shrimp, along with the results from the assay which was done in duplicate are listed below.
Brine shrimp toxicity was assayed, except for some minor modifications, according to the method of McLaughlin et al as reported in Brine Shrimp: A convenient bioassay for active plant constituents, B N Meyer, N R Ferrigni, J E Putnam, L B Jacobsen, D E Nichols and J L McLaughlin in Planta Medica (1982), 45, 31-34 and Crown gall tumours on potato discs and brine shrimp lethality: Two simple bioassays for higher plant screening and fractionation. J L McLaughlin. Methods of Plant Biochemistry (1991), vol. 6 (K Hostettman, ed.), Academic Press, London, 1-32. Ten shrimp were transferred to each of the vials and the volume adjusted to 4.9 mL. Each dose was performed in triplicate, including the control. In quick succession, the appropriate volume of additional DMSO for each dose, required to achieve a final concentration of 2%, was added before the appropriate volume of test solution. The vials were gently mixed and the time noted. After 24 hours, the number of survivors were counted and % mortality was determined. The test compounds were assayed at concentrations of 100 µM, 25 µM, 5 µM, 1 µM and 0.2 µM (and where appropriate concentrations of 0.04 µM and 0.008 µM).
The brine shrimp were able to survive without food in the vials over the 24 hour period and were therefore not fed.
The dose-response curves were constructed using the Sigmaplot computer program and the LC50 value was calculated from the intersection point of the curve and the 50 % mortality line. The LC50 values were expressed in both µM and µg/mL.

vas deferens rat = assay: Cardiovascular and neuro-effector junction activities: vas deferens, rat
From the text: (§1) The cardiotonic action of 1-(4-hydroxy-3-methoxyphenyl)dodecan-3-ol [3.93] was confirmed from independent studies, carried out at our request as part of our agreement with Johnson & Johnson Research Ltd (J&J), by Prof. James Angus from the University of Melbourne. […] A tachycardial effect of the substance on guinea pig atria was, however, observed at significant rate, 50-60% of isoprenaline Emax and the response was not α- or β-adrenoceptor mediated. […] Cardiovascular and neuro-effector junction activities of gingerol analogues

[2] = test system: right atrium-vagus guinea pig; assay: Cardiovascular and neuro-effector junction activities: right atrium-vagus, guinea pig; conditions: result in words with concentration
From the text: as §1

rat mesenteric artery = assay: Vasodilation on rat mesenteric small arteries; conditions: for EC50: Rattus norvegicus, relaxation of small arteries (200-300 µm) precontracted with endothelin; for relaxation of rat mesenteric artery: result in words
From the text: Small arteries (200-300 µm in diameter) isolated from rat mesentery were precontracted with endothelin prior to addition of the test substances and tested for relaxation.

diaphragm rat = assay: Cardiovascular and neuro-effector junction activities: diaphragm, rat
From the text: as §1

right atrium rat = assay: Cardiovascular and neuro-effector junction activities: right atrium, rat; conditions: result in words with concentration
From the text: as §1

right atrium guinea pig = assay: Cardiovascular and neuro-effector junction activities: right atrium, guinea pig; conditions: for right atrium guinea pig: result in words with concentration
From the text: as §1

right atrium-vagus rat = assay: Cardiovascular and neuro-effector junction activities: right atrium-vagus, rat; conditions: result in words with concentration
From the text: as §1

[3] = result in words with concentration

Row | Structure (SMILES) | IC50 (Platelet rich plasma) | Number of capsaicin-sensitive cells responding (DRG neuronal cells; 10 µM applied for 1 min) | Peak [Ca^2+]i (Average ±SD) (DRG neuronal cells; 10 µM applied for 1 min) | LC50 at 24 h [1] | further results
1 | CCCCCCCC(O)CC(O)CCc1ccc(O)c(OC)c1 (stereo not drawn) [[8]-gingerdiol, 1-(4-hydroxy-3-methoxyphenyl)dodecane-3,5-diol, reference compound] | 82.6 ± 9 µM | 2 | 246 ± 35 nM |  | 
2 | CCCCCCCC(O)CC(=O)CCc1ccc(O)c(OC)c1 (stereo not drawn) [[8]-gingerol, 5-hydroxy-1-(4-hydroxy-3-methoxyphenyl)dodecan-3-one, reference compound] | 70.4 ± 3.8 µM | 7 | 279 ± 111 nM | 64 µM and 21 µg/mL | 
3 | CCCCCCCCCC(O)CCc1ccc(O)c(OC)c1 (stereo not drawn) [1-(4-hydroxy-3-methoxyphenyl)dodecan-3-ol] | 58 ± 1.9 µM |  |  | > 100 µM and > 31 µg/mL | block of ATP or α1-receptors in vas deferens (vas deferens rat): Neither blocked; vas deferens rat ↓ (vas deferens rat; 10^-5 M (vehicle?)): ↓30% 10^-5 M (vehicle?); right atrium-vagus guinea pig [2]: no enhancement of vagal slowing 10^-7 - 10^-5 M; potency (EC50) for relaxation of the mesenteric artery versus inotropic effect in guinea pig atrium (rat mesenteric artery): 100 fold; EC50 (rat mesenteric artery): 0.1 µM; relaxation of rat mesenteric artery (rat mesenteric artery): very potent; also recorded: both enantiomers showed similar potency; diaphragm rat ↓ (diaphragm rat; 10^-5 M (vehicle?)): ↓10% 10^-5 M (vehicle?); Number of capsaicin-sensitive cells responding (DRG neuronal cells; high responses, 10 µM): 5; Peak [Ca^2+]i (Average ±SD) (DRG neuronal cells; high responses, 10 µM): 661 ± 376 (high responses) nM; evoked [Ca^2+]i transients (DRG neuronal cells; in Ca^2+-free medium or on application of ruthenium red (1 µM)): abolished or greatly diminished; Number of capsaicin-sensitive cells responding (DRG neuronal cells; low responses, 10 µM): 10; Peak [Ca^2+]i (Average ±SD) (DRG neuronal cells; low responses, 10 µM): 187 ± 66 (low responses) nM; [Ca^2+]i in capsaicin-sensitive DRG cells (DRG neuronal cells; result in words): increased intracellular calcium; right atrium rat (right atrium rat): tachycardi a 3x10^-7 - 3x10^-6 M (with propranolo 1 present); Emax (right atrium guinea pig; Cavia porcellus, right atrium guinea pig, 10^-7 - 3x10^-5 M, not blocked by praz., prop., read-out: tachycardia, % of isoprenaline Emax): 50 to 60%; right atrium guinea pig (right atrium guinea pig): tachycardia 10^-7 - 3x10^-5 M; tachycardia, % of isoprenaline Emax (right atrium guinea pig; right atrium guinea pig, 10^-7 - 3x10^-5 M, not blocked by praz., prop.): 60%; right atrium-vagus rat (right atrium-vagus rat): dramatic enhancement n=1 10^-6 - 10^-5 M
4 | CCCCCCCC(O)CCCCc1ccc(O)c(OC)c1 (stereo not drawn) [1-(4-hydroxy-3-methoxyphenyl)dodecan-5-ol] |  | 0 out of 5 | 0 nM | 6.6 µM and 2 µg/mL | 
5 | CCCCCCCC(O)CC(=O)C=Cc1ccc(O)c(OC)c1 (stereo not drawn) [[8]-dehydrogingerol, 5-hydroxy-1-(4-hydroxy-3-methoxyphenyl)dodecan-1-ene-3-one, reference compound] |  |  |  | 41 µM and 13 µg/mL | 
6 | CCCCCCCC(O)CC(=O)CCc1ccc(O)cc1 (stereo not drawn) [[8]-demethoxygingerol, 5-hydroxy-1-(4-hydroxyphenyl)dodecan-3-one] |  | 2 | 243 ± 71 nM | 25 µM and 7.3 µg/mL | 
7 | CCCCCCCC(O)CC(=O)CCc1ccc(OC)c(O)c1 (stereo not drawn) [[8]-isogingerol, 5-hydroxy-1-(3-hydroxy-4-methoxyphenyl)dodecan-3-one, reference compound] |  | 2 | 281 ± 42 nM | 11 µM and 3.5 µg/mL | 
8 | CCCCCCCC(=O)CC(O)CCc1ccc(O)c(OC)c1 (stereo not drawn) [3-hydroxy-1-(4-hydroxy-3-methoxyphenyl)dodecan-5-one] |  | 5 | 167 ± 105 nM | 67 µM and 22 µg/mL | EC50 (rat mesenteric artery): 0.04 µM; relaxation of rat mesenteric artery (rat mesenteric artery): showed potency
9 | CCCCCCCC(O)CC(=O)c1ccc(O)c(OC)c1 (stereo not drawn) [3-hydroxy-1-(4-hydroxy-3-methoxyphenyl)decan-1-one] |  | 0 out of 5 | 0 nM | 66 µM and 19 µg/mL | block of ATP or α1-receptors in vas deferens (vas deferens rat): Neither blocked; vas deferens rat (vas deferens rat; [3]): no effect 10^-4 M; right atrium-vagus guinea pig [2]: weak? enhanced slowing 10^-7 - 10^-6 M; diaphragm rat ↓ (diaphragm rat; 3x10^-5 M): ↓10% 3x10^-5 M; diaphragm rat (diaphragm rat; [3]): no effect 10^-5 M; right atrium rat (right atrium rat): no change basal rate 10^-7 - 10^-5 M; right atrium guinea pig (right atrium guinea pig): no change basal rate 10^-7 - 10^-5 M; right atrium-vagus rat (right atrium-vagus rat): some enhanced slowing 10^-6 - 10^-5 M
10 | CCCCCC(O)CC(=O)CCc1ccc(O)c(OC)c1 (stereo not drawn) [[6]-gingerol, 5-hydroxy-1-(4-hydroxy-3-methoxyphenyl)decan-3-one, reference compound] | 73.8 ± 6.6 µM |  |  | > 100 µM and > 29 µg/mL | 
11 | CCCCCCCC(O)CC(=O)CCc1cccc(OC)c1O (stereo not drawn) [[8]-orthogingerol, 5-hydroxy-1-(2-hydroxy-3-methoxyphenyl)dodecan-3-one] |  | 2 | 245 ± 64 nM | 9.6 µM and 3.1 µg/mL | 
12 | CCCCCCCC(O)CC(=O)CCc1ccc2c(c1)OCO2 (stereo not drawn) [5-hydroxy-1-(3,4-methylenedioxyphenyl)dodecan-3-one] |  | 2 | 225 ± 78 nM | 3 µM and 0.96 µg/mL | EC50 (rat mesenteric artery): 0.69 µM; relaxation of rat mesenteric artery (rat mesenteric artery): showed potency
